Reference: patent US9303064B2, “Peptide inhibiting matrix metalloproteanases activity and use thereof” (CAREGEN CO., LTD., priority 2011, dated 2016)

System: Hyaluronate lyase
Test: Filler product injected into rat dorsal skin
Format: in vivo
Conditions: 1-7 days, FIG. 6e
Procedure: FIG. 6e represents effects on residence times of filler products when the filler product containing hyaluronate lyase and the peptide (SEQ ID NO:2) is injected to rat dorsal skin. The effects were determined at intervals of 1-7 days.
Hyaluronate lyase was artificially put into a commercial filler product at a concentration of 100 ug to induce degradation of hyaluronic acids, and then 200 ug peptides were treated. […] An assay using GPC column and an in vivo experiment using rats are performed. Control group was treated with hyaluronate lyase, and treatment group was co-treated hyaluronate lyase and each peptide. When the filler product was injected into rat skin, the degradation of hyaluronic acids inside the filler was inhibited by the treatment of peptides (FIG. 6e).

MIPCYISSP (CG-Seperin) [SEQ ID NO:2]
degradation of hyaluronic acids inside the filler injected into rat skin (filler with hyaluronate lyase and peptide): hyaluronic acids degradation effect is excellent | residence times of filler products (versus only filler products): stayed for longer period
